Key:
Type in all cases: in vivo
[1] = tested on: sedge, umbrella (small-flower umbrella sedge, Cyperus difformis); assay: Test B flooded paddy test; details: Flood, 250 g ai/ha; 0 to 100 scale where 0 is no effect and 100 is complete control; 13 to 15 d
In short: (§1)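 Percent control, visually estimated after 13–15 d in the greenhouse on a 0–100 basis, compares treated pots with untreated ones; compound was put into paddy water 3 cm above the soil when plants had two leaves.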

[2] = tested on: ducksalad (Heteranthera limosa); assay: Test B flooded paddy test; details: Flood, 250 g ai/ha; 0 to 100 scale where 0 is no effect and 100 is complete control; 13 to 15 d
In short: as §1

[3] = tested on: barnyardgrass (Echinochloa crus-galli); assay: Test B flooded paddy test; details: Flood, 250 g ai/ha; 0 to 100 scale where 0 is no effect and 100 is complete control; 13 to 15 d
In short: as §1

rice (Oryra sativa) = assay: Test B flooded paddy test; details: Flood, 250 g ai/ha; 0 to 100 scale where 0 is no effect and 100 is complete control; 13 to 15 d
In short: as §1

[4] = tested on: blackgrass (Alopecurus myosuroides); assay: Test A postemergence; details: postemergence; for Blackgrass plant response rating: 125 g ai/ha, visual injury rating on 0 to 100 scale (0 no effect, 100 complete control), approx. 10 d; for Plant response rating, Blackgrass: 500 g ai/ha, 0 to 100 scale, 0 no effect, 100 complete control
In short: (§2)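 Each rating is a visual injury score from 0 to 100 given about 10 d after treatment, judged against untreated controls kept alongside in the greenhouse. In loam soil–sand blend, seeds got a preemergence directed soil spray, while postemergence plants were 2 to 10 cm tall at spraying.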

[5] = tested on: ragweed (common ragweed, Ambrosia elatior); assay: Test A postemergence; details: for Ragweed plant response rating: 125 g ai/ha, postemergence, visual injury rating on 0 to 100 scale (0 no effect, 100 complete control), approx. 10 d; for Plant response rating, Ragweed: Postemergence, 500 g ai/ha, 0 to 100 scale where 0 is no effect and 100 is complete control
In short: as §2

[6] = tested on: ryegrass, Italian (Italian ryegrass, Lolium multiflorum); assay: Test A postemergence; details: for Ryegrass, Italian plant response rating: 125 g ai/ha, postemergence, visual injury rating on 0 to 100 scale (0 no effect, 100 complete control), approx. 10 d; for Plant response rating, Ryegrass, Italian: Postemergence, 500 g ai/ha, 0 to 100 scale where 0 is no effect and 100 is complete control
In short: as §2

corn (Zea mays) = assay: Test A postemergence; details: postemergence; for Corn plant response rating: 125 g ai/ha, visual injury rating on 0 to 100 scale (0 no effect, 100 complete control), approx. 10 d; for Plant response rating, Corn: 500 g ai/ha, 0 to 100 scale, 0 no effect, 100 complete control
In short: as §2

[7] = tested on: pigweed (Amaranthus retroflexus); assay: Test A postemergence; details: for Pigweed plant response rating: 125 g ai/ha, postemergence, visual injury rating on 0 to 100 scale (0 no effect, 100 complete control), approx. 10 d; for Plant response rating, Pigweed: Postemergence, 500 g ai/ha, 0 to 100 scale where 0 is no effect and 100 is complete control
In short: as §2

Kochia (Kochia scoparia) [8] = assay: Test A postemergence; details: for Kochia plant response rating: 125 g ai/ha, postemergence, visual injury rating on 0 to 100 scale (0 no effect, 100 complete control), approx. 10 d; for Plant response rating, Kochia: Postemergence, 500 g ai/ha, 0 to 100 scale where 0 is no effect and 100 is complete control
In short: as §2

[9] = tested on: wheat (Triticum aestivum); assay: Test A postemergence; details: for Wheat plant response rating: 125 g ai/ha, postemergence, visual injury rating on 0 to 100 scale (0 no effect, 100 complete control), approx. 10 d; for Plant response rating, Wheat: Postemergence, 500 g ai/ha, 0 to 100 scale where 0 is no effect and 100 is complete control
In short: as §2

[10] = tested on: giant foxtail (Setaria faberii); assay: Test A postemergence; details: for Foxtail, Giant plant response rating: 125 g ai/ha, postemergence, visual injury rating on 0 to 100 scale (0 no effect, 100 complete control), approx. 10 d; for Plant response rating, Foxtail, Giant: Postemergence, 500 g ai/ha, 0 to 100 scale where 0 is no effect and 100 is complete control
In short: as §2

[11] = tested on: barnyardgrass (Echinochloa crus-galli); assay: Test A postemergence; details: postemergence; for Barnyardgrass plant response rating: 125 g ai/ha, visual injury rating on 0 to 100 scale (0 no effect, 100 complete control), approx. 10 d; for Plant response rating, Barnyardgrass: 500 g ai/ha, 0 to 100 scale, 0 no effect, 100 complete control
In short: as §2

[12] = tested on: Galium (catchweed bedstraw, Galium aparine); assay: Test A postemergence; details: for Galium plant response rating: 125 g ai/ha, postemergence, visual injury rating on 0 to 100 scale (0 no effect, 100 complete control), approx. 10 d; for Plant response rating, Galium: Postemergence, 500 g ai/ha, 0 to 100 scale where 0 is no effect and 100 is complete control
In short: as §2

[13] = tested on: ragweed (common ragweed, Ambrosia elatior); assay: Test A preemergence; details: Preemergence; for Plant response rating, Ragweed: 125 g ai/ha, visual injury after approximately 10 d, 0 to 100 scale where 0 is no effect and 100 is complete control; for Ragweed plant response rating (0 to 100 scale, 0 is no effect, 100 is complete control): 500 g ai/ha, visual injury approx. 10 d
In short: as §2

[14] = tested on: ryegrass, Italian (Italian ryegrass, Lolium multiflorum); assay: Test A preemergence; details: Preemergence; for Plant response rating, Ryegrass, Italian: 125 g ai/ha, visual injury after approximately 10 d, 0 to 100 scale where 0 is no effect and 100 is complete control; for Ryegrass, Italian plant response rating (0 to 100 scale, 0 is no effect, 100 is complete control): 500 g ai/ha, visual injury approx. 10 d
In short: as §2

[15] = tested on: pigweed (Amaranthus retroflexus); assay: Test A preemergence; details: Preemergence; for Plant response rating, Pigweed: 125 g ai/ha, visual injury after approximately 10 d, 0 to 100 scale where 0 is no effect and 100 is complete control; for Pigweed plant response rating (0 to 100 scale, 0 is no effect, 100 is complete control): 500 g ai/ha, visual injury approx. 10 d
Kochia (Kochia scoparia) [16] = assay: Test A preemergence; details: for Plant response rating, Kochia: 125 g ai/ha, preemergence, 0 to 100 scale (0 no effect, 100 complete control); for Kochia plant response rating (0 to 100 scale, 0 is no effect, 100 is complete control): Preemergence, 500 g ai/ha, visual injury approx. 10 d
In short: as §2

[17] = tested on: giant foxtail (Setaria faberii); assay: Test A preemergence; details: for Plant response rating, Foxtail, Giant: 125 g ai/ha, preemergence, 0 to 100 scale (0 no effect, 100 complete control); for Foxtail, Giant plant response rating (0 to 100 scale, 0 is no effect, 100 is complete control): Preemergence, 500 g ai/ha, visual injury approx. 10 d
In short: as §2

[18] = tested on: barnyardgrass (Echinochloa crus-galli); assay: Test A preemergence; details: for Plant response rating, Barnyardgrass: 125 g ai/ha, preemergence, 0 to 100 scale (0 no effect, 100 complete control); for Barnyardgrass plant response rating (0 to 100 scale, 0 is no effect, 100 is complete control): Preemergence, 500 g ai/ha, visual injury approx. 10 d
In short: as §2

## O=C1NCC(c2ccc(C(F)(F)F)cc2F)C1C(=O)Nc1cccc(F)c1F (stereo not drawn) [Compound 475]
[1]
  Plant response rating, Sedge, Umbrella: 0
[2]
  Plant response rating, Ducksalad: 100
[3]
  Plant response rating, Barnyardgrass: 20
Rice (Oryra sativa)
  Plant response rating, Rice: 15
[4]
  Blackgrass plant response rating: 30
  Plant response rating, Blackgrass: 40
[5]
  Ragweed plant response rating: 20
  Plant response rating, Ragweed: 30
[6]
  Ryegrass, Italian plant response rating: 20
  Plant response rating, Ryegrass, Italian: 30
Corn (Zea mays)
  Corn plant response rating: 0
  Plant response rating, Corn: 60
[7]
  Pigweed plant response rating: 50
  Plant response rating, Pigweed: 70
Kochia (Kochia scoparia) [8]
  Kochia plant response rating: 40
  Plant response rating, Kochia: 60
[9]
  Wheat plant response rating: 0
  Plant response rating, Wheat: 30
[10]
  Foxtail, Giant plant response rating: 90
  Plant response rating, Foxtail, Giant: 90
[11]
  Barnyardgrass plant response rating: 90
  Plant response rating, Barnyardgrass: 90
[12]
  Galium plant response rating: 50
  Plant response rating, Galium: 60
[13]
  Plant response rating, Ragweed: 50
  Ragweed plant response rating (0 to 100 scale, 0 is no effect, 100 is complete control): 60
[14]
  Plant response rating, Ryegrass, Italian: 20
  Ryegrass, Italian plant response rating (0 to 100 scale, 0 is no effect, 100 is complete control): 40
[15]
  Plant response rating, Pigweed: 60
  Pigweed plant response rating (0 to 100 scale, 0 is no effect, 100 is complete control): 90
Kochia (Kochia scoparia) [16]
  Plant response rating, Kochia: 70
  Kochia plant response rating (0 to 100 scale, 0 is no effect, 100 is complete control): 70
[17]
  Plant response rating, Foxtail, Giant: 90
  Foxtail, Giant plant response rating (0 to 100 scale, 0 is no effect, 100 is complete control): 90
[18]
  Plant response rating, Barnyardgrass: 90
  Barnyardgrass plant response rating (0 to 100 scale, 0 is no effect, 100 is complete control): 90

## C=C(Cl)CN1CC(c2cccc(C(F)(F)F)c2)C(C(=O)Nc2cccc(F)c2F)C1=O (stereo not drawn) [Compound 480]
[1]
  Plant response rating, Sedge, Umbrella: 0
[2]
  Plant response rating, Ducksalad: 0
[3]
  Plant response rating, Barnyardgrass: 0
Rice (Oryra sativa)
  Plant response rating, Rice: 0
[4]
  Blackgrass plant response rating: 0
  Plant response rating, Blackgrass: 0
[5]
  Ragweed plant response rating: 0
  Plant response rating, Ragweed: 0
[6]
  Ryegrass, Italian plant response rating: 0
  Plant response rating, Ryegrass, Italian: 0
Corn (Zea mays)
  Corn plant response rating: 0
  Plant response rating, Corn: 0
[7]
  Pigweed plant response rating: 0
  Plant response rating, Pigweed: 0
Kochia (Kochia scoparia) [8]
  Kochia plant response rating: 0
  Plant response rating, Kochia: 0
[9]
  Wheat plant response rating: 0
  Plant response rating, Wheat: 30
[10]
  Foxtail, Giant plant response rating: 20
  Plant response rating, Foxtail, Giant: 50
[11]
  Barnyardgrass plant response rating: 0
  Plant response rating, Barnyardgrass: 30
[12]
  Galium plant response rating: 0
  Plant response rating, Galium: 0
[13]
  Plant response rating, Ragweed: 0
  Ragweed plant response rating (0 to 100 scale, 0 is no effect, 100 is complete control): 0
[14]
  Plant response rating, Ryegrass, Italian: 0
  Ryegrass, Italian plant response rating (0 to 100 scale, 0 is no effect, 100 is complete control): 0
[15]
  Plant response rating, Pigweed: 0
  Pigweed plant response rating (0 to 100 scale, 0 is no effect, 100 is complete control): 0
Kochia (Kochia scoparia) [16]
  Plant response rating, Kochia: 0
  Kochia plant response rating (0 to 100 scale, 0 is no effect, 100 is complete control): 0
[17]
  Plant response rating, Foxtail, Giant: 70
  Foxtail, Giant plant response rating (0 to 100 scale, 0 is no effect, 100 is complete control): 90
[18]
  Plant response rating, Barnyardgrass: 0
  Barnyardgrass plant response rating (0 to 100 scale, 0 is no effect, 100 is complete control): 0
